# Where “and” joins values, the source holds several entries; their conditions need not be identical. Identical values can stand only once. Entries after “also recorded” stand apart in the source; their conditions may differ.
# Legend:
# [1] = test system: mechanical or electrical stimulation in the cat; conditions: cited from earlier work
# [2] = test system: citric acid (aerosol)-induced coughing responses in guinea pigs; conditions: cited from earlier work
# [3] = test system: tracheal secretion of phenol red in mice; assay: Tracheal secretion of phenol red in male mice (Engler and Szelenyi method); type: in vivo; conditions: for ED50: Mus musculus, po, 0.5 h, read-out: ED50 (dose stimulating tracheal secretion of phenol red by 50% over the control); for ED50 / effect on tracheal secretion of phenol red, dose dependence / ED50 (dose stimulating tracheal secretion of phenol red by 50% over the control): 30 minutes; for ED50 / ED50 (dose stimulating tracheal secretion of phenol red by 50% over the control): male mice; for Phenol Red Secretion, Treated: 30 min before phenol red i.p., * P<0.05 vs control; for Phenol Red Secretion, Treated / % Change in phenol red secretion: mean ± SFM; for % Change in phenol red secretion: vs control
# Source text: Adult male mice weighing 14-40 g were used in this investigation. Animals were acclimatized to the laboratory environment for a minimum of five days prior to use in the experimental procedures. Housing was provided in environmentally controlled quarters in which temperature, humidity and ventilation were regulated based on the needs of the species. Husbandry practices and veterinary care were in accordance with the Guide for Care and Use of Laboratory Animals (NIH Publication No. 85-23). Tracheal secretion in mice, expressed by the amount of phenol red dye secreted into the lumen of the trachea was measured according to the method of Engler and Szelenyi. Male mice were randomly placed into appropriate treatment groups. On each experiment day, one to four mice in a group received orally either vehicle (distilled water or 1% acacia, 0.1 mL/10 g body weight) or a drug. Each drug was tested at a minimum of three different dose levels. Each drug dosage was tested in at least six animals. Drugs were administered orally (0.1 mL/10 g body weight) 30 minutes prior to intraperitoneal injection of phenol red (500 mg/kg: 5% solution in physiological saline, 0.1 mL/10 g body weight). Thirty minutes after phenol red injection the animals were sacrificed by exposure to CO2. The whole trachea was carefully excised and washed in 1.0 mL physiological saline for a period of 30 minutes. Subsequently, 0.1 mL of 1 M NaOH was added to the tracheal washings to stabilize the pH of the lavage fluid. The amount of phenol red was measured photometrically at […] in a Beckman Model 25 spectrophotometer. The amount of phenol red secreted in the tracheal lumen, expressed in μg/10 g body weight/hr, was determined by the formula of Graziani and Cazzulani: [formula] where: S=phenol red secreted per 10 g of body weight per hour (μg/10 g/hr). s=intensity of emission of the phenol red contained in 1.0 mL of tracheal lavage as determined from the standard curve of phenol red (0.5, 1, 5, and 10 μg/mL). V=volume of the tracheal lavage (1.0 mL). W=body weight of the mice expressed in grams. The results were expressed as mean ±S.F.M. Statistical significance was evaluated using the t-test for independent means, where P<0.05 is considered to be significant as compared to the appropriate control. The % increase in tracheal secretion of phenol red by each dose of a drug was determined by using the following formula: [formula] T=tracheal secretion of phenol red (μg/10 g/hr) in treated mice each day. C=tracheal secretion of phenol red (μg/10 g/hr) in untreated mice each day. The line of best fit was calculated from the dose response curve of each drug and the ED50 (mg/kg), i.e. the dose stimulating tracheal secretion of phenol red by 50% over the control level, was determined and 95% confidence limits were also calculated.
# [4] = test system: tracheal secretion in mice; conditions: cited from earlier work
Compound,ED50 ([3]; p.o.) [mg/kg],"Phenol Red Secretion, Treated ([3]; oral dose 0.3 mg/kg) [μg/10 g/hr]",% Change in phenol red secretion ([3]; oral dose 0.3 mg/kg) [%],"Phenol Red Secretion, Treated ([3]; oral dose 1.0 mg/kg) [μg/10 g/hr]",% Change in phenol red secretion ([3]; oral dose 1.0 mg/kg) [%],"Phenol Red Secretion, Treated ([3]; oral dose 10.0 mg/kg) [μg/10 g/hr]",% Change in phenol red secretion ([3]; oral dose 10.0 mg/kg) [%],"Phenol Red Secretion, Treated ([3]; oral dose 30.0 mg/kg) [μg/10 g/hr]",% Change in phenol red secretion ([3]; oral dose 30.0 mg/kg) [%],"stimulation of tracheal secretion of phenol red ([3]; oral, mice)","effect on tracheal secretion of phenol red, dose dependence ([3]; p.o., mice)","Phenol Red Secretion, Treated ([3]; oral dose 50.0 mg/kg) [μg/10 g/hr]",% Change in phenol red secretion ([3]; oral dose 50.0 mg/kg) [%],"Phenol Red Secretion, Treated ([3]; oral dose 200.0 mg/kg) [μg/10 g/hr]",% Change in phenol red secretion ([3]; oral dose 200.0 mg/kg) [%],"Phenol Red Secretion, Treated ([3]; oral dose 100.0 mg/kg) [μg/10 g/hr]",% Change in phenol red secretion ([3]; oral dose 100.0 mg/kg) [%],oral ED50 reported earlier by others [4],also measured
"OCC(O)CI (stereo not drawn) [3-iodo-1,2-propanediol]",0.75,1.02 ± 0.06,37.5 ± 8.01,1.16 ± 0.13,56.55 ± 17.83,1.32 ± 0.16,77.36 ± 21.67,1.56 ± 0.23,110.45 ± 31.5,stimulates tracheal secretion of phenol red; also recorded: effective in stimulating tracheal secretion of phenol red,dose-dependent increase; also recorded: dose-dependent stimulation,,,,,,,,"antitussive effect [1]: antitussive effect; antitussive effect [2]: antitussive effect; effectiveness relative to iodinated glycerol in stimulating tracheal secretion of phenol red ([3]; oral, mice, times as effective as iodinated glycerol): about 90 times"
CC(=O)N[C@@H](CS)C(=O)O [N-acetylcysteine],61.8,,,,,0.66 ± 0.06,2.3 ± 13.2,,,,dose-dependent increase,1.00 ± 0.08,51.6 ± 10.6,1.30 ± 0.12,75.7 ± 1.5,,,,
CN(Cc1cc(Br)cc(Br)c1N)C1CCCCC1 [Bromhexine],> 100,,,,,,,0.67 ± 0.10,0 ± 0,,weak to moderate nondose-related effect,,,,,0.90 ± 0.10,40.6 ± 17.0,,"bronchosecretogogue activity reported by others ([4]; 40 mg/kg, p.o., mice): little or no bronchosecretogogue activity; significant increase in phenol red tracheal secretion ([3]; 3 or 30 mg/kg, p.o.): not at 3 or 30 mg/kg; increase in phenol red tracheal secretion ([3]; only at 100 mg/kg, p.o.): significant increase; Phenol Red Secretion, Treated ([3]; oral dose 3.0 mg/kg): 1.20 ± 0.13 μg/10 g/hr; % Change in phenol red secretion ([3]; oral dose 3.0 mg/kg): 20.9 ± 12.9%"
CC(C)(C)NCC(O)c1ccc(O)c(CO)c1 (stereo not drawn) [Albuterol],0.18,1.30 ± 0.16,78.4 ± 22.9,1.60 ± 0.09,118.6 ± 11.6,,,,,stimulated tracheal secretion of phenol red,dose-dependent increase,,,,,,,about 4 mg/kg,"Phenol Red Secretion, Treated ([3]; oral dose 0.1 mg/kg): 0.85 ± 0.08 μg/10 g/hr; % Change in phenol red secretion ([3]; oral dose 0.1 mg/kg): 20.5 ± 10.6%"
"[I-].[K+] [Potassium Iodide, potassium iodide]",,,,,,,,,,stimulated tracheal secretion of phenol red,dose-dependent increase,0.67 ± 0.07,5.1 ± 11.2,0.96 ± 0.10,49.1 ± 12.2,1.47 ± 0.15,45.8 ± 14.2,~4000 mg/kg,"ED50 (dose stimulating tracheal secretion of phenol red by 50% over the control) ([3]; p.o.): ~ 200 mg/kg; ED50 (dose stimulating tracheal secretion of phenol red by 50% over the control) ([3]; p.o., listed as potassium iodide): ~ 200 mg/kg and 200 mg/kg"

# Source: US5723501A, “Pharmaceutical compositions containing 3-IODO-1,2-propanediol having mucolytic activity” (Carter-Wallace, Inc., priority 1996, dated 1998)
